“Also recorded” adds a separate entry of the source.
What was measured:
[1] = ALS drug candidates; cited from earlier work
[2] = tested on: SOD1^G93A (SOD1^G93A/Hb9::GFP) mouse ESC derived MNs; assay: MN survival after trophic factor withdrawal, mixed culture; assay type: cell-based; settings: trophic factor withdrawal, 3 days; SOD1^G93A/Hb9::GFP MNs
From the text: (§1) In the present study, we have screened highly specific small molecule kinase inhibitors to identify those which could promote MN survival. For the screen, we generated MNs from wild-type (Hb9::GFP) and SOD1^G93A (SOD1^G93A/Hb9::GFP) mouse ESCs using published protocols (Di Giorgio et al., 2007). We withdrew trophic factors as a standard method to induce MN death. Cell plating density as well as timing for initiation and duration of trophic factor withdrawal were used exactly as published to achieve ˜80% MN death in 3 days (FIG. 1A) (Yang et al., 2013). […] We continued to work with this compound class as it reproducibly promoted survival of both MNs types and the effect was robust. We further reasoned that since this compound class promoted survival of both MN types, the probability of its working in other contexts such as on human MNs and in the ALS mouse model was maximum.
High expression of Aurora kinases is associated with various types of cancer (Sen et al., 1997; Reichardt et al., 2003; Tchatchou et al., 2007) and there are many AKIs including VX-680 and ZM447439 that are in clinical trials for anti-cancer drug development.
(§2) Trophic factors were removed and ZM447439 was added to the cultures as previously and MN survival was analyzed on day 7, 14 & 21.

[3] = tested on: FACS purified Hb9::GFP MNs; assay: MN survival after trophic factor withdrawal, FACS purified MN culture; assay type: cell-based, mouse; settings: FACS purified MN cultures, trophic factors withdrawn, FIG. 1C
From the text: ESC-derived MN culture achieves ˜30%-50% MN differentiation efficiency and is therefore highly heterogeneous. To examine whether AKIs specifically act in a cell-autonomous or non-cell-autonomous manner, we established a highly enriched MN culture through FACS purification based on Hb9::GFP reporter expression. […] Next, we asked whether AKIs exert their survival promoting effect only cell-autonomously or whether they also function non-cell-autonomously to rescue MN death. To address this question we produced astrocyte conditioned medium (ACM) by incubating primary murine astrocytes with AKIs (VX-680 and ZM447439). The ACM was then dialyzed using a dialyzer with pore size appropriate for eliminating residual AKIs.

[4] = tested on: wild-type (Hb9::GFP) mouse ESC derived MNs; assay: MN survival after trophic factor withdrawal, mixed culture; assay type: cell-based; settings: for survival of MNs (number of surviving MNs): trophic factor withdrawal, 3 days, wild-type Hb9::GFP MNs
From the text: as §1, with “maximum. […]” for “maximum.”
as §2

[5] = tested on: human iPSC derived MNs (healthy control, SOD1, TDP-43, C90RF72); settings: human MNs derived from wild-type and ALS-patient-iPSCs (Yang et al., 2013); cited from earlier work
[6] = tested on: wild-type (Hb9::GFP) mouse ESC derived MNs; settings: previous small molecule survival screen (Yang et al., 2013); cited from earlier work
[7] = tested on: SOD1^G93A (SOD1^G93A/Hb9::GFP) mouse ESC derived MNs; settings: previous small molecule survival screen (Yang et al., 2013); cited from earlier work
[8] = ALS (Miller et al., 2007); cited from earlier work
Prkarlb = assay: Prkar1b immunostaining in surviving MNs; assay type: cell-based, mouse; settings: absence of TFs
[9] = tested on: HuES-3/Hb9::GFP human ESC derived MNs; assay: Human ESC derived MN survival after trophic factor withdrawal; assay type: cell-based; settings: trophic factors withdrawn; AraC pre-treated cultures
From the text: We generated MNs from a human ESC line expressing an HB9::GFP transgene [HuES-3/Hb9::GFP (Di Giorgio et al., 2008)]. Human ESC derived MN cultures were pre-treated with AraC to eliminate progenitor cells. We induced MN death by again withdrawing trophic factors. […] We also investigated the toxic effect of SOD1^G93A astrocytes on human ESC derived MN survival. We found significant death of human MNs cultured on mutant astrocytes.

[10] = tested on: phosphorylated BAD (pBAD); assay: Phosphorylated BAD immunostaining in surviving MNs; assay type: cell-based, mouse; settings: absence of TFs
[11] = tested on: synaptophysin in SOD1^G93A/Hb9::GFP MN cultures; assay: Synaptophysin immunoblotting; assay type: cell-based, mouse
MNs = assay: Lentivirus knockdown of Prkarlb, MN survival; assay type: cell-based, mouse
From the text: (§3) Next we sought to investigate the mechanism by which AKIs promote MN survival. To evaluate this comprehensively we performed microarray analysis to compare gene expression between MNs cultured with: 1) Trophic factors (+TF), 2) No trophic factors (−TF), 3) VX-680 in the absence of TFs, and 4) ZM447439 in the absence of TFs. […] Gene expression was compared between +TF and −TF, VX-680 and −TF, and ZM447439 and −TF. With a cut off of more than 3 fold difference, there were 85 genes overlapping in all three comparison in Hb9::GFP MNs and 57 in SOD1^G93A/Hb9::GFP MNs. We found 39 overlapping genes when we compared both types of MNs (FIG. 5B). […] We analyzed the shortlist of 39 genes by using DAVID functional annotation bioinformatics microarray analysis software to find the potential pathways involved in MN survival. […] PKA is known to phosphorylate BAD protein, leading to increased cell survival (Jose M. LIZCANO et al., 2000; Julian Downward et al., Nature cell biology 1999; Komaki S et al., Neurosci Lett 2012). […] We further investigated this pathway by lentivirus knockdown of Prkarlb.

[12] = tested on: Hb9::GFP and SOD1^G93A/Hb9::GFP MNs; assay: Microarray analysis of gene expression in MNs; assay type: cell-based, mouse; settings: compound in the absence of TFs versus -TF
From the text: as §3

SOD1^G93A/Hb9::GFP MNs = assay: Number of synapses per MN (synapsin/PSD-95 co-localization, automated imager); assay type: cell-based, mouse
From the text: (§4) To examine whether MNs kept alive by AKIs maintain morphological integrity we carried out a series of analyses on surviving MNs in the absence of trophic factors. […] We also used an automated imager to analyze the number of synapses per MN by counting co-localized regions positive for the presynaptic marker synapsin and the postsynaptic marker PSD-95.

Hb9::GFP MNs = assay: as above; assay type: cell-based, mouse
From the text: as §4

[13] = tested on: human iPSC derived MNs (healthy control, SOD1, TDP-43, C90RF72); assay: Human iPSC derived MN survival; assay type: cell-based; settings: all human iPSC derived MN cultures; AraC treated
From the text: We produced MNs from human iPSCs lines including a healthy control, two ALS patients expressing confirmed mutations in SOD1 (Boulting et al., 2011), two with mutations in TDP-43 and one in C90RF72. We treated these cultures with AraC to minimize the number of proliferating progenitors. […] We also examined the effect of SOD 1^G93A astrocytes co-culture on iPSC derived MNs. We found no toxic effect on survival in any of the patient iPSC derived MNs, but we did observe decreased MN survival in the control iPSC derived MNs. […] We also looked at the effect of AKIs on morphology and synapse formation. […] In addition, by immunoblot we observed that ZM447439 enhanced synaptic protein, synaptophysin, expression in both the presence and absence of trophic factors.

[14] = tested on: synaptophysin in Hb9::GFP MN cultures; assay: Synaptophysin immunoblotting; assay type: cell-based, mouse

Question: With `CC(C)CCC[C@@H](C)[C@H]1CC[C@H]2[C@@H]3CCC4=CC(=NO)CC[C@]4(C)[C@H]3CC[C@]12C` [olesoxime] as the compound, how does the “outcome of phase III clinical trials” value [1] read?
Answer: failed

Question: For `COc1cc2ncnc(Nc3ccc(NC(=O)c4ccccc4)cc3)c2cc1OC.Cl` [4-4-Ben, N-[4-[(6,7-Dimethoxy-4-quinazolinyl)amino]phenyl] benzamide Hydrochloride], which “survival of MNs (number of surviving MNs)” value [2] is on record?
Answer: consistently increased the survival of MNs

Question: What about the MN survival [3] of the same compound?
Answer: rescued MN survival in a dose dependent fashion

Question: What about the “survival of MNs (number of surviving MNs)” value [4] of the same compound?
Answer: consistently increased the survival of MNs

Question: What does the source list for `O=C1Cc2c([nH]c3ccc(Br)cc23)-c2ccccc2N1` [Kenpaullone]?
Answer: survival of human MNs [5]: able to improve the survival; healthy survival of MNs [6]: impressive ability to prolong the healthy survival; healthy survival of MNs [7]: impressive ability to prolong the healthy survival

Question: For `CCCN[C@@H]1CCc2nc(N)sc2C1` [dexpramipexole], which “outcome of phase III clinical trials” value [1] is on record?
Answer: failed

Question: With `Nc1nc2ccc(OC(F)(F)F)cc2s1` [Riluzole] as the compound, how does the functional improvement [8] read?
Answer: very little functional improvement; also recorded: little functional improvement

Question: Which “survival of MNs (number of surviving MNs)” value [2] does the source give for `Cc1cc(Nc2cc(N3CCN(C)CC3)nc(Sc3ccc(NC(=O)C4CC4)cc3)n2)[nH]n1` [VX-680, Tozasertib] here?
Answer: consistently increased the survival of MNs; also recorded: most potent and robust at increasing survival

Question: What about the “levels of Prkarlb” value (Prkarlb) of the same compound?
Answer: increased levels

Question: And the “human MN survival” value [9]?
Answer: rescued human MN death

Question: What about the “levels of phosphorylated BAD (pBAD)” value [10] of the same compound?
Answer: increased levels

Question: And the “expression of synaptic protein synaptophysin” value [11]?
Answer: increased expression

Question: What about the MN survival [3] of the same compound?
Answer: rescued MN survival in a dose dependent fashion

Question: And the “MN survival on knocking down Prkarlb in the presence of the compound” value (MNs)?
Answer: effectively decreased MN survival

Question: And the “expression of genes related to synapse formation (Syt1, Snap25 and Sv2c, Map2 and Dcx)” value [12]?
Answer: upregulated

Question: What about the “survival effect in dose dependent assay, comparison among AKIs” value ([4]; mixed MN culture, FIG. 1B) of the same compound?
Answer: most effective and potent in promoting MN survival

Question: What about the “survival of MNs (number of surviving MNs)” value [4] of the same compound?
Answer: consistently increased the survival of MNs; also recorded: most potent and robust at increasing survival

Question: What about the “number of synapses per MN” value (SOD1^G93A/Hb9::GFP MNs; absence of trophic factors, SOD1^G93A/Hb9::GFP MNs) of the same compound?
Answer: preserved the number of synapses

Question: What about the “number of synapses per MN” value (SOD1^G93A/Hb9::GFP MNs; neurotrophin containing medium) of the same compound?
Answer: increased the number of synapses per MN

Question: And the “number of synapses per MN” value (Hb9::GFP MNs; absence of trophic factors, Hb9::GFP MNs)?
Answer: preserved the number of synapses

Question: What about the “number of synapses per MN” value (Hb9::GFP MNs; neurotrophin containing medium) of the same compound?
Answer: increased the number of synapses per MN

Question: What about the MN survival [13] of the same compound?
Answer: substantially increase MN survival

Question: And the “expression of synaptic protein synaptophysin” value [14]?
Answer: increased expression
